*1 amine or outer side, *2 acyl side, *3 side chain or, on linkers, in order; H or OH if unused. Where a SMILES comes first, the peptide text is derived from it. Bridges are numbered along the chain shown (N, C = ends). [ ]: non-standard residue; d: D form. The star is where a group is joined. X1 = COc1cc2cc(c1Cl)N(C)C(=O)C[C@H](OC(=O)[C@H](C)N(C)C(=O)CCSSC(C)CCC(=O)*)[C@]1(C)O[C@H]1[C@H](C)[C@@H]1C[C@@](O)(NC(=O)O1)[C@H](OC)/C=C/C=C(\C)C2; 1Nal = N[C@@H](Cc1cccc2ccccc12)C(=O)O; TBMB = c1c(C[*:1])cc(C[*:3])cc1C[*:2]; Tle = CC(C)(C)[C@H](N)C(=O)O; βAla = NCCC(=O)O; Sar = CNCC(=O)O
Legend:
[1] = target: MT1-MMP (Homo sapiens, UniProt P50281); assay: Fluorescence polarisation competition binding
Method: By means of comparison, a non-reducible BDC was prepared, BT1721, which includes a non-reducible maleimide thioether linkage which is […].

[2] = test system: MT1-positive tumor xenograft models (e.g. HT1080 fibrosarcoma; HCC1806 triple negative breast cancer; SNU-16 gastric cancer); assay: Selection of MT1-positive tumor xenograft models; type: in vivo
From the text: Efficacy in this model was reduced in the conjugates containing the least cleavable linkers.

[3] = test system: SNU-16 xenograft; assay: In vivo efficacy of BT1718 in SNU-16 xenograft; set-up: species or system Mus Musculus; key to Best response at 10 mg/kg: CR complete response; PR partial response
Method: The objective of this study was to evaluate the in vivo anti-tumor efficacy of BT1718in treatment of HT1080, NCI-H292, NCI-H1975, MDA-MB-231, HCC1806, RPMI2650, HCT-15, HT-29 and SNU-16 xenograft in BALB/c nude mice.
The HT1080, NCI-H292, NCI-H1975, MDA-MB-231, HCC1806, RPMI2650, HCT-15, HT-29 and SNU-16 tumor cells were maintained in vitro as a monolayer culture in medium supplemented with 10% heat inactivated fetal bovine serum at 37° C. in an […]. The tumor cells will be routinely subcultured twice weekly by trypsin-EDTA treatment. The cells growing in an exponential growth phase will be harvested and counted for tumor inoculation.
Mouse was inoculated subcutaneously at the right flank with tumor cells for tumor development. The animals were randomized and treatment was started when the average tumor reaches certain volume for the efficacy study, the inoculating cell amounts and starting tumor size were shown as below in Table 9. The test article administration and the animal numbers in each group were shown in the experimental design in Table 10.
All the procedures related to animal handling, care and the treatment in the study were performed according to the guidelines of the Association for Assessment and Accreditation of Laboratory Animal Care (AAALAC). At the time of routine monitoring, the animals were daily checked for any effects of tumor growth and treatments on normal behavior such as mobility, food and water consumption (by looking only), body weight gain/loss (body weights were measured every day), eye/hair matting and any other abnormal effect as stated in the protocol. Death and observed clinical signs were recorded on the basis of the numbers of animals within each subset.
The major endpoint was to see if the tumor growth could be delayed or mice could be cured. Tumor size was measured three times weekly in two dimensions using a caliper, and the volume was expressed in mm^3 using the formula: V=0.5 a×b^2 where a and b are the long and short diameters of the tumor, respectively. The tumor size was then used for calculations of T/C value. The T/C value (in percent) is an indication of antitumor effectiveness; T and C are the mean volumes of the treated and control groups, respectively, on a given day.
TGI was calculated for each group using the formula: TGI (%)=[1−(Ti−T0)/(Vi−V0)]×100; Ti is the average tumor volume of a treatment group on a given day, T0 is the average tumor volume of the treatment group on the day of treatment start, Vi is the average tumor volume of the vehicle control group on the same day with Ti, and V0 is the average tumor volume of the vehicle group on the day of treatment start.
Summary statistics, including mean and the standard error of the mean (SEM), are provided for the tumor volume of each group at each time point.
Statistical analysis of difference in tumor volume among the groups was conducted on the data obtained at the best therapeutic time point after the final dose.
A one-way ANOVA was performed to compare tumor volume among groups, and when a significant F-statistics (a ratio of treatment variance to the error variance) was obtained, comparisons between groups were carried out with Games-Howell test. All data were analyzed using Prism. P<0.05 was considered to be statistically significant.

Question: How did the Ki [1] turn out when `COc1cc2cc(c1Cl)N(C)C(=O)C[C@H](OC(=O)[C@H](C)N(C)C(=O)CCSSC(C)CCC(=O)NCCC(=O)N(C)CC(=O)N(C)CC(=O)N(C)CC(=O)N(C)CC(=O)N(C)CC(=O)N(C)CC(=O)N(C)CC(=O)N(C)CC(=O)N(C)CC(=O)N(C)CC(=O)N[C@@H](C)C(=O)N[C@H]1CSCc3cc4cc(c3)CSC[C@H](NC(=O)[C@@H](C)NC(=O)[C@H](Cc3cccc5ccccc35)NC(=O)[C@H](CCC(=O)O)NC(=O)[C@H](CC(N)=O)NC(=O)[C@@H](C)NC1=O)C(=O)N[C@@H](CCC(=O)O)C(=O)N[C@@H](CC(=O)O)C(=O)N[C@@H](Cc1ccccc1)C(=O)N[C@@H](Cc1ccc(O)cc1)C(=O)N[C@@H](CC(=O)O)C(=O)N[C@@H](C(C)(C)C)C(=O)N[C@H](C(N)=O)CSC4)[C@]1(C)O[C@H]1[C@H](C)[C@@H]1C[C@@](O)(NC(=O)O1)[C@H](OC)/C=C/C=C(\C)C2` (stereo partly drawn) [BT1718] ({X1-βAla}-[Sar][Sar][Sar][Sar][Sar][Sar][Sar][Sar][Sar][Sar]AC[dA]NE[1Nal][dA]CEDFYD[Tle]C-NH2; linker 12-18-25 via TBMB (inferred)) was run?
Answer: Its Ki is 0.9 nM.

Question: And the tumor response ([2]; 10 mg/kg twice weekly)?
Answer: The tumor response was “complete regressions in most models”.

Question: And the minimally effective doses ([2]; weekly or twice weekly)?
Answer: The minimally effective doses was 3 to 10 mg/kg.

Question: And the “Body Weight” value ([3]; 1 mpk biw, day 0)?
Answer: The value was 22.9 ± 0.5 g.

Question: What about the “Tumor Volume” value ([3]; 1 mpk biw, day 0) of the same compound?
Answer: The value was 160 ± 24 mm^3.

Question: What about the “Body Weight” value ([3]; 1 mpk biw, day 2) of the same compound?
Answer: Its value is 22.8 ± 0.5 g.

Question: And the “Tumor Volume” value ([3]; 1 mpk biw, day 2)?
Answer: Its value is 160 ± 15 mm^3.

Question: And the “Body Weight” value ([3]; 1 mpk biw, day 4)?
Answer: The value was 23.0 ± 0.5 g.

Question: And the “Tumor Volume” value ([3]; 1 mpk biw, day 4)?
Answer: Its value is 140 ± 12 mm^3.

Question: And the “Body Weight” value ([3]; 1 mpk biw, day 7)?
Answer: Its value is 23.0 ± 0.4 g.

Question: What about the “Tumor Volume” value ([3]; 1 mpk biw, day 7) of the same compound?
Answer: The value was 137 ± 13 mm^3.

Question: What about the “Body Weight” value ([3]; 1 mpk biw, day 9) of the same compound?
Answer: Its value is 22.7 ± 0.5 g.

Question: And the “Tumor Volume” value ([3]; 1 mpk biw, day 9)?
Answer: Its value is 139 ± 9 mm^3.

Question: And the “Body Weight” value ([3]; 1 mpk biw, day 11)?
Answer: The value was 23.0 ± 0.5 g.

Question: What about the “Tumor Volume” value ([3]; 1 mpk biw, day 11) of the same compound?
Answer: Its value is 142 ± 11 mm^3.

Question: What about the “Body Weight” value ([3]; 1 mpk biw, day 14) of the same compound?
Answer: Its value is 23.3 ± 0.5 g.

Question: And the “Tumor Volume” value ([3]; 1 mpk biw, day 14)?
Answer: The value was 176 ± 9 mm^3.

Question: What about the “Body Weight” value ([3]; 3 mpk biw, day 0) of the same compound?
Answer: Its value is 22.7 ± 0.3 g.

Question: And the “Tumor Volume” value ([3]; 3 mpk biw, day 0)?
Answer: Its value is 161 ± 29 mm^3.

Question: What about the “Body Weight” value ([3]; 3 mpk biw, day 2) of the same compound?
Answer: Its value is 22.1 ± 0.5 g.

Question: And the “Tumor Volume” value ([3]; 3 mpk biw, day 2)?
Answer: Its value is 115 ± 13 mm^3.

Question: And the “Body Weight” value ([3]; 3 mpk biw, day 4)?
Answer: The value was 21.8 ± 0.2 g.

Question: What about the “Tumor Volume” value ([3]; 3 mpk biw, day 4) of the same compound?
Answer: The value was 36 ± 4 mm^3.

Question: And the “Body Weight” value ([3]; 3 mpk biw, day 7)?
Answer: The value was 21.5 ± 0.3 g.

Question: What about the “Tumor Volume” value ([3]; 3 mpk biw, day 7) of the same compound?
Answer: The value was 25 ± 4 mm^3.

Question: What about the “Body Weight” value ([3]; 3 mpk biw, day 9) of the same compound?
Answer: Its value is 20.0 ± 0.1 g.

Question: And the “Tumor Volume” value ([3]; 3 mpk biw, day 9)?
Answer: Its value is 18 ± 1 mm^3.

Question: What about the “Body Weight” value ([3]; 3 mpk biw, day 11) of the same compound?
Answer: The value was 20.2 ± 0.6 g.

Question: And the “Tumor Volume” value ([3]; 3 mpk biw, day 11)?
Answer: The value was 5 ± 3 mm^3.

Question: And the “Body Weight” value ([3]; 3 mpk biw, day 14)?
Answer: Its value is 20.6 ± 0.6 g.

Question: What about the “Tumor Volume” value ([3]; 3 mpk biw, day 14) of the same compound?
Answer: The value was 0 ± 0 mm^3.

Question: And the “Best response at 10 mg/kg” value ([3]; SNU-16, 10 mg/kg)?
Answer: The value was “CR”.

Question: And the TGI ([3]; SNU-16, 1 mpk, biw, day 14)?
Answer: Its TGI is 51.4%.

Question: What about the “Tumor Volume” value ([3]; SNU-16, 1 mpk, biw, day 14) of the same compound?
Answer: The value was 304 ± 43 mm^3.

Question: And the TGI ([3]; SNU-16, 3 mpk, biw, day 14)?
Answer: The TGI was 94.5%.

Question: What about the “Tumor Volume” value ([3]; SNU-16, 3 mpk, biw, day 14) of the same compound?
Answer: The value was 176 ± 9 mm^3.

Question: What about the TGI ([3]; SNU-16, 10 mpk, biw, day 14) of the same compound?
Answer: Its TGI is 155%.

Question: And the “Tumor Volume” value ([3]; SNU-16, 10 mpk, biw, day 14)?
Answer: The value was 0 ± 0 mm^3.

Question: And the “Minimally Effective Dose IV BIW” value ([3]; SNU-16, dose leading to tumor-stasis)?
Answer: Its value is 3 mg/kg.

Question: And the “dosing suspension until re-growth to 150 mm3” value ([3]; after 10 mg/kg biw)?
Answer: The value was 7 weeks.

Question: What about the tumor response ([3]; after 2 weeks 10 mg/kg biw) of the same compound?
Answer: The tumor response was “completely regressed”.

Question: And the “dosing time until tumor regression on resumed treatment” value ([3]; mouse, in vivo)?
Answer: Its value is 1-2 weeks.

— patent publication US10441663B2, “Methods for treating cancer” (Bicycle Therapeutics Limited, priority 2016, dated 2019)
